Assay results published in PubChem BioAssay (NCI).
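In this assay, cells in 96-well plates receive the compound at five concentrations for 48 hours. Endpoints are linearly interpolated between the surrounding concentrations. TGI marks complete inhibition of growth.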

How the values were obtained:
Experiment in all cases: NCI anticancer screen, dose series, 48 h
OVCAR-4 ovarian = tested on: OVCAR-4 ovarian
SW-620 colon = tested on: SW-620 colon
NCI/ADR-RES ovarian = tested on: NCI/ADR-RES ovarian
A549 NSCLC = tested on: A549 NSCLC
MOLT-4 leukemia = tested on: MOLT-4 leukemia
SK-MEL-5 melanoma = tested on: SK-MEL-5 melanoma
T-47D breast = tested on: T-47D breast
SNB-19 CNS = tested on: SNB-19 CNS
U251 CNS = tested on: U251 CNS
HL-60(TB) leukemia = tested on: HL-60(TB) leukemia
HCT-116 colon = tested on: HCT-116 colon
HOP-92 NSCLC = tested on: HOP-92 NSCLC
RXF 393 renal = tested on: RXF 393 renal
A498 renal = tested on: A498 renal
RPMI-8226 leukemia = tested on: RPMI-8226 leukemia
BT-549 breast = tested on: BT-549 breast
NCI-H460 lung = tested on: NCI-H460 lung
IGROV1 ovarian = tested on: IGROV1 ovarian
OVCAR-5 ovarian = tested on: OVCAR-5 ovarian
SF-295 CNS = tested on: SF-295 CNS
SK-OV-3 ovarian = tested on: SK-OV-3 ovarian
UACC-257 melanoma = tested on: UACC-257 melanoma
HCC-2998 colon = tested on: HCC-2998 colon
SNB-75 CNS = tested on: SNB-75 CNS
OVCAR-8 ovarian = tested on: OVCAR-8 ovarian
HS 578T breast = tested on: HS 578T breast
SK-MEL-28 melanoma = tested on: SK-MEL-28 melanoma
SF-539 CNS = tested on: SF-539 CNS
MDA-N = tested on: MDA-N
SN12C renal = tested on: SN12C renal
NCI-H23 lung = tested on: NCI-H23 lung
SK-MEL-2 melanoma = tested on: SK-MEL-2 melanoma
K-562 leukemia = tested on: K-562 leukemia
HCT-15 colon = tested on: HCT-15 colon
786-0 renal = tested on: 786-0 renal
UACC-62 melanoma = tested on: UACC-62 melanoma
CAKI-1 renal = tested on: CAKI-1 renal
EKVX NSCLC = tested on: EKVX NSCLC
TK-10 renal = tested on: TK-10 renal
HT29 colon = tested on: HT29 colon
M14 melanoma = tested on: M14 melanoma
NCI-H226 lung = tested on: NCI-H226 lung
MCF7 breast = tested on: MCF7 breast
UO-31 renal = tested on: UO-31 renal
HOP-62 NSCLC = tested on: HOP-62 NSCLC
MDA-MB-231 breast = tested on: MDA-MB-231 breast
LOX IMVI melanoma = tested on: LOX IMVI melanoma
SF-268 CNS = tested on: SF-268 CNS
PC-3 prostate = tested on: PC-3 prostate
MDA-MB-435 = tested on: MDA-MB-435
NCI-H522 lung = tested on: NCI-H522 lung
COLO 205 colon = tested on: COLO 205 colon
DU-145 prostate = tested on: DU-145 prostate
CCRF-CEM leukemia = tested on: CCRF-CEM leukemia
ACHN renal = tested on: ACHN renal
MALME-3M melanoma = tested on: MALME-3M melanoma
KM12 colon = tested on: KM12 colon
OVCAR-3 ovarian = tested on: OVCAR-3 ovarian

Structure (SMILES): CC(=O)OC1CC(OC2C(O)CC(OC3C(O)CC(OC4CCC5(C)C(CCC6C5CCC5(C)C(C7=CC(=O)OC7)CCC65O)C4)OC3C)OC2C)OC(C)C1OC1OC(CO)C(O)C(O)C1O (stereo not drawn)
- TGI (OVCAR-4 ovarian): 162 nM
- TGI (SW-620 colon): 148 nM
- TGI (NCI/ADR-RES ovarian): 58.1 nM
- TGI (A549 NSCLC): 22.1 nM
- TGI (MOLT-4 leukemia): > 100000 nM
- TGI (SK-MEL-5 melanoma): 107 nM
- TGI (T-47D breast): 344 nM
- TGI (SNB-19 CNS): 348 nM
- TGI (U251 CNS): 137 nM
- TGI (HL-60(TB) leukemia): 82.7 nM
- TGI (HCT-116 colon): 47.2 nM
- TGI (HOP-92 NSCLC): 234 nM
- TGI (RXF 393 renal): 101 nM
- TGI (A498 renal): 131 nM
- TGI (RPMI-8226 leukemia): 7430 nM
- TGI (BT-549 breast): 98.4 nM
- TGI (NCI-H460 lung): 24.5 nM
- TGI (IGROV1 ovarian): 289 nM
- TGI (OVCAR-5 ovarian): 116 nM
- TGI (SF-295 CNS): 142 nM
- TGI (SK-OV-3 ovarian): 186 nM
- TGI (UACC-257 melanoma): 422 nM
- TGI (HCC-2998 colon): 290 nM
- TGI (SNB-75 CNS): 249 nM
- TGI (OVCAR-8 ovarian): 139 nM
- TGI (HS 578T breast): 92.6 nM
- TGI (SK-MEL-28 melanoma): 592 nM
- TGI (SF-539 CNS): 35.2 nM
- TGI (MDA-N): 152 nM
- TGI (SN12C renal): 286 nM
- TGI (NCI-H23 lung): 23.3 nM
- TGI (SK-MEL-2 melanoma): 245 nM
- TGI (K-562 leukemia): > 100000 nM
- TGI (HCT-15 colon): 67.9 nM
- TGI (786-0 renal): 59.8 nM
- TGI (UACC-62 melanoma): 334 nM
- TGI (CAKI-1 renal): < 32.1 nM
- TGI (EKVX NSCLC): 53.6 nM
- TGI (TK-10 renal): 149 nM
- TGI (HT29 colon): 171 nM
- TGI (M14 melanoma): 188 nM
- TGI (NCI-H226 lung): 241 nM
- TGI (MCF7 breast): 536 nM
- TGI (UO-31 renal): 130 nM
- TGI (HOP-62 NSCLC): < 15.6 nM
- TGI (MDA-MB-231 breast): 2980 nM
- TGI (LOX IMVI melanoma): 68.5 nM
- TGI (SF-268 CNS): 129 nM
- TGI (PC-3 prostate): 159 nM
- TGI (MDA-MB-435): 172 nM
- TGI (NCI-H522 lung): 29.1 nM
- TGI (COLO 205 colon): 168 nM
- TGI (DU-145 prostate): 48.9 nM
- TGI (CCRF-CEM leukemia): > 100000 nM
- TGI (ACHN renal): 94.2 nM
- TGI (MALME-3M melanoma): 112 nM
- TGI (KM12 colon): 310 nM
- TGI (OVCAR-3 ovarian): 88.3 nM
